Source: PubChem BioAssay (NCI)
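Method: 48-hour compound exposure of cells in 96-well plates, five concentrations, linear interpolation of endpoints. Here, GI50 denotes the concentration required for 50% inhibition of growth. TGI: total growth inhibition.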

What was measured:
Assay in all cases: growth of human tumour cells (NCI), 48 h
[1] = system: DU-145 prostate
[2] = system: HCT-15 colon
[3] = system: MOLT-4 leukemia
[4] = system: OVCAR-4 ovarian
[5] = system: IGROV1 ovarian
[6] = system: HL-60(TB) leukemia
[7] = system: SN12C renal
[8] = system: HT29 colon
[9] = system: KM12 colon
[10] = system: SK-OV-3 ovarian
[11] = system: PC-3 prostate
[12] = system: HS 578T breast
[13] = system: TK-10 renal
[14] = system: MDA-MB-231 breast

Compound	TGI [1]	TGI [2]	TGI [3]	TGI [4]	TGI [5]	TGI [6]	TGI [7]	TGI [8]	TGI [9]	TGI [10]	TGI [11]	TGI [12]	TGI [13]	TGI [14]	GI50 [7]
Cc1ccc(SCC(OCn2cnc3c(N)ncnc32)[C@H](C)F)cc1 (some centres not stated)	> 100 µM	> 100 µM	> 100 µM	> 100 µM	> 100 µM	> 100 µM	> 100 µM	> 100 µM	> 100 µM	> 100 µM	> 100 µM	> 100 µM	> 100 µM	> 100 µM	
Cc1[nH]c2c(C)ccc(C)c2c1CC(=O)O	> 100 µM	> 100 µM	54.1 µM	> 100 µM	> 100 µM	23.7 µM	> 100 µM	> 100 µM	> 100 µM	> 100 µM	69.9 µM	60.4 µM	> 100 µM	76.3 µM	
CC(=O)O[C@H]1CC[C@H]2[C@@H]3CCc4cc(O)c(I)cc4[C@H]3CC[C@]12C	28.7 µM	22.9 µM	61.6 µM	28 µM	30.5 µM	80.9 µM	37.2 µM	33.2 µM	28.3 µM	29.1 µM	20 µM	31.9 µM	33.6 µM	12.3 µM	18 µM
NCC(=O)C(O)C(O)C(O)CO (configuration not stated)	> 100 µM	> 100 µM	> 100 µM	> 100 µM	> 100 µM	> 100 µM	> 100 µM	> 100 µM	> 100 µM	> 100 µM	> 100 µM	> 100 µM	> 100 µM	> 100 µM	
c1ccc(N/N=C2\CC(c3ccccc3)Oc3ccccc32)cc1 (configuration not stated)	> 100 µM	> 100 µM	> 100 µM	> 100 µM	> 100 µM	> 100 µM	> 100 µM	> 100 µM	> 100 µM	> 100 µM	> 100 µM	> 100 µM	> 100 µM	> 100 µM	
CN(C)c1ccc(N=Nc2cccc3ccoc23)cc1	> 100 µM	> 100 µM	> 100 µM	> 100 µM	> 100 µM	> 74.7 µM	> 100 µM	> 100 µM	> 100 µM	> 100 µM	> 100 µM	> 100 µM	> 100 µM	> 100 µM	
CC(=O)OCc1nc(C#N)c(N)o1	> 100 µM	> 100 µM	> 100 µM	> 100 µM	> 100 µM	> 100 µM	> 100 µM	> 100 µM	> 100 µM	> 100 µM	> 100 µM	> 100 µM	> 100 µM	> 100 µM	
CCOC(=O)/C(C#N)=C(/NS(=O)(=O)c1cc(C)c(Cl)cc1[S-])[n+]1ccc(N(C)C)cc1	> 100 µM	> 100 µM	> 100 µM	> 100 µM	> 100 µM	> 100 µM	> 100 µM	> 100 µM	> 100 µM	> 100 µM	> 100 µM	> 100 µM	> 100 µM	> 100 µM	
C[C@]12CC[C@@H]3c4ccc(OC(=O)c5ccccc5)cc4CC[C@H]3[C@@H]1CCC2OC(=O)c1cccc2c(=O)c3ccccc3[nH]c12 (some centres not stated)	42.6 µM	29 µM	> 100 µM	33.8 µM	33.3 µM	> 100 µM	30.1 µM	20.7 µM	29.6 µM	74.2 µM	29.8 µM	38.5 µM	39.1 µM	40.8 µM	
COC(=O)CCc1ccc2c(c1)CCC2	> 100 µM	> 100 µM	> 100 µM	> 100 µM	> 100 µM	> 100 µM	> 100 µM	> 100 µM	> 100 µM	> 100 µM	> 100 µM	> 100 µM	> 100 µM	> 100 µM	
CCOC(=O)C(NNS(=O)(=O)c1ccc(C)cc1)S(=O)(=O)C(F)(F)C(F)(F)C(F)(F)C(F)(F)F (configuration not stated)	> 100 µM	> 100 µM	> 100 µM	> 100 µM	> 100 µM	> 100 µM	> 100 µM	> 100 µM	> 100 µM	> 100 µM	> 100 µM	> 100 µM	> 100 µM	> 100 µM	
COC(=O)c1cc(C#N)[nH]c1-c1ccsc1	> 100 µM	> 100 µM	> 100 µM	> 100 µM	> 100 µM	48.7 µM	> 100 µM	> 100 µM	> 100 µM	> 100 µM	> 100 µM	> 100 µM	> 100 µM	> 100 µM	
N#Cc1c(C#N)c(-c2cccc([N+](=O)[O-])c2)n(-c2ccccc2)c1N	> 100 µM	> 100 µM	> 100 µM	> 100 µM	> 100 µM	> 100 µM	> 100 µM	> 100 µM	> 100 µM	> 100 µM	> 100 µM	> 100 µM	> 100 µM	> 100 µM	
CCOC(=O)c1ccc2c(c1)nc1n2C(c2c(F)cccc2F)SC1 (configuration not stated)	> 100 µM	> 100 µM	> 100 µM	> 100 µM	42 µM	> 100 µM	> 100 µM	56.4 µM	37.7 µM	> 100 µM	71.2 µM	> 100 µM	> 100 µM	> 100 µM	
CN(C(=O)OC(C)(C)C)[C@H]1CCCC[C@H]1N1CCCC1	> 100 µM	> 100 µM	> 100 µM	> 100 µM	> 100 µM	> 100 µM	> 100 µM	> 100 µM	> 100 µM	> 100 µM	> 100 µM	> 100 µM	> 100 µM	> 100 µM	
COC(=O)C1([C@@H]2C[C@@H](O)[C@]3(C)CC/C=C(\C)CCC[C@H](C)[C@H](O)[C@@H]2O3)CC1	> 100 µM	> 100 µM	88.8 µM	> 100 µM	> 100 µM	> 100 µM	> 100 µM	> 100 µM	> 100 µM	> 100 µM	> 100 µM	> 100 µM	> 100 µM	> 100 µM	
COc1cccc2c1C(=O)C(=O)c1c-2oc(=O)c2cc(C)cc(OC)c12	27.9 µM	27.7 µM	74.3 µM	26.7 µM	32 µM	49.9 µM	> 75 µM	> 75 µM	53.9 µM	> 75 µM	> 75 µM	55.1 µM	> 75 µM	70.6 µM	
O=C(NNC(=S)Nc1ccccc1)C12CC3CC(CC(C3)C1)C2	> 100 µM	> 100 µM	60 µM	> 100 µM	> 100 µM	37.7 µM	> 100 µM	> 100 µM	> 100 µM	> 100 µM	> 100 µM	> 100 µM	> 100 µM	> 100 µM	
C1COC2SC3=C(SC(=C4SC5=C(SCCS5)S4)S3)SC2O1 (configuration not stated)	> 100 µM	> 100 µM	> 100 µM	> 100 µM	> 100 µM	> 100 µM	> 100 µM	> 100 µM	> 100 µM	> 100 µM	> 100 µM	> 100 µM	> 100 µM	> 100 µM	
COC1Cc2c(C)c(OC(C)=O)c3cccnc3c2O1 (configuration not stated)	31 µM	22.1 µM	43.1 µM	30.1 µM	37.3 µM	25.3 µM	37.8 µM	> 100 µM	> 100 µM	> 100 µM	> 100 µM	> 100 µM	> 100 µM	> 100 µM	
CC(=O)N1NC(c2ccccc2)=CC(=O)/C1=C/C(=O)c1ccccc1	> 100 µM	> 100 µM	> 100 µM	> 100 µM	> 100 µM	76.3 µM	> 100 µM	> 100 µM	> 100 µM	> 100 µM	> 100 µM	> 100 µM	> 100 µM	> 100 µM	
CC(C)(C)CN1[C@@H]2CCCC[C@H]2N(CC(C)(C)C)P1(=O)Cc1ccccc1	30 µM	25 µM	27.5 µM	24.9 µM	23.3 µM	26.4 µM	30.1 µM	21.7 µM	34.3 µM	29.2 µM	19.4 µM	31 µM	25 µM	24.9 µM	
CCCCCCCC/C=C\CCCCCCCCNc1ccn(C2OC(COP(=O)(O)OC3CC(n4cc(F)c(=O)[nH]c4=O)OC3CO)C(O)C2O)c(=O)n1 (configuration not stated)	> 100 µM	> 100 µM	20.5 µM	> 100 µM	> 100 µM	45.7 µM	> 100 µM	> 61.8 µM	> 100 µM	> 100 µM	> 100 µM	> 100 µM	> 100 µM	> 100 µM	
C=CCNC1=C2C[C@@H](C)C[C@@H](OC)[C@H](OC(=O)CN(C)C)[C@H](C)/C=C(\C)[C@@H](OC(N)=O)[C@H](OC)/C=C\C=C(/C)C(=O)NC(=CC1=O)C2=O	2.72 µM	20.4 µM	> 41.6 µM	26 µM	13.5 µM	13.7 µM	17.7 µM	12.7 µM	0.274 µM	20 µM	16.6 µM	47.7 µM	16.3 µM	10.5 µM	
